The values below come from PMC6800282, “Make the right measurement: Discovery of an allosteric inhibition site for p300-HAT” (Structural Dynamics, 2019).

One assay addresses T1, WT P300 HAT domain (Homo sapiens, UniProt Q09472).
T1 construct: WT HAT construct = K1287-F1666 including the L1520-L1580 regulatory loop, expressed as HisTev fusion; HisTev (polyhistidine tag with TEV site); made in house
T1 sequence (Q09472 1287-1666): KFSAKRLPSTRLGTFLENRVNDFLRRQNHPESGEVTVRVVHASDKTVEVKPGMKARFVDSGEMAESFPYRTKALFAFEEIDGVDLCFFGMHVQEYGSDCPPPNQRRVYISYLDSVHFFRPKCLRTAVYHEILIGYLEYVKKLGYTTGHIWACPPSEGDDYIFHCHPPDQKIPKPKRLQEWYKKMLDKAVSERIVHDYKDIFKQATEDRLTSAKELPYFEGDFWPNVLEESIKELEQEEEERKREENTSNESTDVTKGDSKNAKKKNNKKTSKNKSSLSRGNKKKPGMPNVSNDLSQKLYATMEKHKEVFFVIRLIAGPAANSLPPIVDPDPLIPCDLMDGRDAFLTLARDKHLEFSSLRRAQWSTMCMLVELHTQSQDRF
As to the kind of experiment: p300 HAT domain SPA catalytic assay with peptide substrate. Format: biochemical. The note with it: for Mechanism of inhibition (excess substrate MOI tests): 10× AcCoA, 30× histone peptide; for IC50: HAT domain construct K1287-F1666. The method, then: To identify starting points for modulating p300/CBP activity, high throughput screening was carried out using the WT P300 HAT domain (WT HAT construct = K1287-F1666 including the L1520-L1580 regulatory loop, expressed as HisTev fusion) and a peptide substrate in a catalytic assay. After extensive triage, several validated inhibitor types were identified, one of which will be the focus of this report. A more detailed description of the HTS efforts will be the subject of a forthcoming publication by Huhn et al. At this stage of the project, only the HAT domain of p300 was used, as it was not yet feasible to obtain sufficient quantities of full-length P300 (FL-P300) to conduct a high-throughput screen of >150,000 compounds.

For a further assay, the target named is CBP HAT (Homo sapiens, UniProt Q92793). Description: CBP HAT SPA. The format is biochemical.
Chain of CBP HAT (Q92793 1323-1700 limits assumed): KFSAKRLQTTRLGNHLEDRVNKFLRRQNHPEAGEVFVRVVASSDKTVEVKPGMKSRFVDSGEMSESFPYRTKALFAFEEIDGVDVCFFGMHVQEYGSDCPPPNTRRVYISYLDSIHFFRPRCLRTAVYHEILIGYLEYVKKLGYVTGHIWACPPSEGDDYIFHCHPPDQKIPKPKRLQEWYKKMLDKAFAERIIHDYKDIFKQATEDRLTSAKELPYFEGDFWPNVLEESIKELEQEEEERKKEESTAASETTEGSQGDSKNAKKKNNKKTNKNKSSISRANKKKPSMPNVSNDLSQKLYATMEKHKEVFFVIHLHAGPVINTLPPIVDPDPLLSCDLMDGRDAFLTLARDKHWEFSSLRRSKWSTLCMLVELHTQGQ
Another assay concerns the target T2, P300-HAT domain (Homo sapiens, UniProt Q09472).
T2 sequence (Q09472 1287-1666): T1 sequence (Q09472 1287-1666)
Description: Dynamic scanning fluorimetry (DSF). Format: binding. The settings on record: for ΔTm at 250 µM: compound at 250 μM. An excerpt: Additionally, given their small size, it seemed unlikely that CPI-076 and CPI-090 blocked both sites.

Assay [1] concerns the target T3, full-length human p300 (FL-P300) (Homo sapiens, UniProt Q09472).
T3 construct: polyhistidine tag with TEV site (HisTev) (N); StrepII (C); made in house; host or cells: Sf9 insect cells (baculovirus)
Description: Full-length p300 SPA. Format: biochemical. The settings on record: for Inhibition of FL enzyme: full-length P300. An excerpt: The sequence of 2414-residue full-length human p300 (FL-P300) was codon-optimized for insect cell expression and synthesized in three parts (Genscript). After assembly of the full-length sequence, the complete ORF was subcloned into a modified pTriEx vector (Novagen/EMD Millipore) to express FL-P300 with both an N-terminal, cleavable polyhistidine tag and C-terminal StrepII tag (HisTev-p300-Strep). Baculovirus was produced by co-transfection of the plasmid into Sf9 cells with linearized baculovirus BestBac2.0 (Expression Systems). The protein was expressed in Sf9 cells and purified with Talon Metal Affinity Resin (Clontech/Takara). The purified protein was concentrated to 1.6 mg/ml in storage buffer (50 mM Tris pH 8, 100 mM NaCl, 10% glycerol, and 0.5 mM TCEP).
At this point in the program, quantities of highly purified FL P300 were more readily available (preparation described above), and so HAT inhibitors were retested against FL P300 under optimized conditions. A large shift relative to the P300-HAT catalytic domain assay was observed.

Assay [2] concerns H3K18 acetylation in HCT116 cells. As to the kind of experiment: Inhibition of H3K18 acetylation in HCT116 cells. The format is cell-based. The note with it: Homo sapiens, HCT-116, read-out: H3K18Ac EC50.
Setting [3] is: full-length enzyme, optimized conditions.

By IC50 is commonly meant the concentration needed to halve the response being measured. The ΔTm is the change in melting temperature against a reference sample. By EC50 is commonly meant the concentration giving half of the maximal effect.

Where “and” joins values, the source holds several entries; their conditions need not be identical. Identical values can stand only once.

T3 sequence (Q09472 whole entry): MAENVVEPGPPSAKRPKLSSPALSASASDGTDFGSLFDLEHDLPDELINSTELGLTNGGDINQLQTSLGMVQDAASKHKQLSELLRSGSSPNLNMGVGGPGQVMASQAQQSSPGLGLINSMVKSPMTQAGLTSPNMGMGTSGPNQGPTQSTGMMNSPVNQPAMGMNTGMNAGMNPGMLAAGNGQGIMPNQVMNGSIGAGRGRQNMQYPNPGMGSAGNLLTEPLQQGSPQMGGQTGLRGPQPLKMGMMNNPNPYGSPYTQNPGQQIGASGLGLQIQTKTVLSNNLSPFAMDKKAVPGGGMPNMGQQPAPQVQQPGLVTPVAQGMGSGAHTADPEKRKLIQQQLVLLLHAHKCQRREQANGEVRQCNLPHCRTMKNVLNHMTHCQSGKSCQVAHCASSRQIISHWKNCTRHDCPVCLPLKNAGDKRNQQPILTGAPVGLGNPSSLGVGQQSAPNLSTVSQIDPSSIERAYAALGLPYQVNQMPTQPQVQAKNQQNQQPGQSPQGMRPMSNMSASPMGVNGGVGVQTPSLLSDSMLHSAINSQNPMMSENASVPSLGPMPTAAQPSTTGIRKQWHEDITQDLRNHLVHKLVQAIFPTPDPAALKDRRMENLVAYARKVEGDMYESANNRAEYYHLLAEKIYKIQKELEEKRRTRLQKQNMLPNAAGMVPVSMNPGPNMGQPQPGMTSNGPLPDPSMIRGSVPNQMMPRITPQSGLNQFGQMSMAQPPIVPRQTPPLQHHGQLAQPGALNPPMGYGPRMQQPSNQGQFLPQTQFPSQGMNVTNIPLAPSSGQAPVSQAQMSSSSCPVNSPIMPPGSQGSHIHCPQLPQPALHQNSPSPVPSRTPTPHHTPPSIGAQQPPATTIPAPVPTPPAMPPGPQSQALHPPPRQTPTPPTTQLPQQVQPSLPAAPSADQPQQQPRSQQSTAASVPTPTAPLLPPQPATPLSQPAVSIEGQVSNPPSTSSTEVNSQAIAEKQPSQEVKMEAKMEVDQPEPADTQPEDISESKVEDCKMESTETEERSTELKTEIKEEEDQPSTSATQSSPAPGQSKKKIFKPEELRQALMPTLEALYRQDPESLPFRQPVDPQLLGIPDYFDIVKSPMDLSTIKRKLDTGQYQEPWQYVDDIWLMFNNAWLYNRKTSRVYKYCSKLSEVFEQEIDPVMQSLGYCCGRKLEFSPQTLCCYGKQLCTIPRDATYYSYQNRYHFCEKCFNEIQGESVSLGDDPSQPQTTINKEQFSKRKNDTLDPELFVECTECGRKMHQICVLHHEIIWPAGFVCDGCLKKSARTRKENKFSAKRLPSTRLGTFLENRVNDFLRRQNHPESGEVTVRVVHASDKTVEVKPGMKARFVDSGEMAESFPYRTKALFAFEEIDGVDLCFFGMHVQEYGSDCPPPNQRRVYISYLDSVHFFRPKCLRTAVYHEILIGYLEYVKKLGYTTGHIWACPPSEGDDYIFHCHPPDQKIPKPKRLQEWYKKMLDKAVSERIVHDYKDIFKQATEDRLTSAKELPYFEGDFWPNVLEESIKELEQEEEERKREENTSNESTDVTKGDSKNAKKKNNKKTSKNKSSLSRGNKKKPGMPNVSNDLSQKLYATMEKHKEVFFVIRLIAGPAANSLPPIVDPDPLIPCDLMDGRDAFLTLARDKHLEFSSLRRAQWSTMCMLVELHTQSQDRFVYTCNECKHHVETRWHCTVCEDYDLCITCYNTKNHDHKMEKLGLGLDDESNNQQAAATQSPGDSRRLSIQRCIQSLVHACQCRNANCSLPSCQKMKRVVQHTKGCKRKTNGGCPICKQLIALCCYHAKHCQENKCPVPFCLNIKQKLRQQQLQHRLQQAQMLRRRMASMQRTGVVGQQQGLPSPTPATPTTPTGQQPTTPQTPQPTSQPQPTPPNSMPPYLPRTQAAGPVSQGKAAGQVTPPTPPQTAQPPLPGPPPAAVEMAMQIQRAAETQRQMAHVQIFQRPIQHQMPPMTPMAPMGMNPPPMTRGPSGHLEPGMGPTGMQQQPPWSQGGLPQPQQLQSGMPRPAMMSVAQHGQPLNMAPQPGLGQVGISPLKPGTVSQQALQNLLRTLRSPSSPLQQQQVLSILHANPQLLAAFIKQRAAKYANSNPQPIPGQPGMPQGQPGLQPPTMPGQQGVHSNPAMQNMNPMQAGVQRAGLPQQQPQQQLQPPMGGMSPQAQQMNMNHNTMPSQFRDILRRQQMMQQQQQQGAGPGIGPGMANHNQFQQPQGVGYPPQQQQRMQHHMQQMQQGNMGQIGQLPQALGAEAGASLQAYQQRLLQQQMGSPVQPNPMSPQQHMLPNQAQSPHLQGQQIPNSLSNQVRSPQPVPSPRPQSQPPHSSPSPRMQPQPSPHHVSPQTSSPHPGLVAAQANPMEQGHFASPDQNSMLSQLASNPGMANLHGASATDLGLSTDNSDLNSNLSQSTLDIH

As to `CC(=O)Nc1cccs1` [CPI-076], on WT P300 HAT domain, the “Mechanism of inhibition (excess substrate MOI tests)” value is “AcCoA- and peptide-modulating compounds but not wholly competitive”; the IC50 worked out at 20 µM. Further, the IC50 against CBP HAT came out at 39 µM. Further, the thermal shift (ΔTm) at 250 µM on P300-HAT domain turned out to be 1.3 °C. In assay [1], the “Inhibition of FL enzyme” value was “no measurable FL activity”. Also, the “FL p300 SPA IC50” value in assay [1] (setting [3]) is reported as “Undetectable”.

For `Cc1[nH]c2ccccc2c1-c1ncc(C(F)(F)F)cc1Cl` [CPI-090], the “Mechanism of inhibition (excess substrate MOI tests)” value on WT P300 HAT domain was “AcCoA- and peptide-modulating compounds but not wholly competitive”. In addition, the IC50 is 0.318 µM and 0.31 µM at WT P300 HAT domain; 0.74 µM on CBP HAT; above 160 µM in assay [1] (setting [3]). Also, the “DSF stabilization” value at P300-HAT domain is on record as “strong stabilization”. Besides, the ΔTm at 250 µM on P300-HAT domain came to 5.8 °C. Moreover, in assay [2], the EC50 was above 30 µM. In assay [1], the “Inhibition of FL enzyme” value is given as “does not inhibit the FL enzyme”.
